From PubChem BioAssay (NCI)
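Grown in 96-well plates, cells were treated for 48 hours with each compound at five concentrations. Insufficient inhibition: endpoint recorded as highest concentration tested. The concentration for full growth arrest is given as TGI.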 Where a SMILES comes first, the peptide text is derived from it. Bridges are numbered along the chain shown (N, C = ends). [ ]: non-standard residue; d: D form. The star is where a group is joined. PhAc = O=C(Cc1ccccc1)*

Key:
Assay in all cases: inhibition of tumour cell growth, NCI panel, 48 h
TK-10 renal = tested on: TK-10 renal
T-47D breast = tested on: T-47D breast
EKVX NSCLC = tested on: EKVX NSCLC
HS 578T breast = tested on: HS 578T breast
NCI-H23 lung = tested on: NCI-H23 lung
MDA-MB-231 breast = tested on: MDA-MB-231 breast
786-0 renal = tested on: 786-0 renal
CAKI-1 renal = tested on: CAKI-1 renal
SF-539 CNS = tested on: SF-539 CNS
SK-MEL-5 melanoma = tested on: SK-MEL-5 melanoma
U251 CNS = tested on: U251 CNS
SK-MEL-2 melanoma = tested on: SK-MEL-2 melanoma
SK-OV-3 ovarian = tested on: SK-OV-3 ovarian
UO-31 renal = tested on: UO-31 renal
ACHN renal = tested on: ACHN renal
COLO 205 colon = tested on: COLO 205 colon
NCI-H226 lung = tested on: NCI-H226 lung
A498 renal = tested on: A498 renal

| Structure (SMILES) | TGI (TK-10 renal) [µM] | TGI (T-47D breast) [µM] | TGI (EKVX NSCLC) [µM] | TGI (HS 578T breast) [µM] | TGI (NCI-H23 lung) [µM] | TGI (MDA-MB-231 breast) [µM] | TGI (786-0 renal) [µM] | TGI (CAKI-1 renal) [µM] | TGI (SF-539 CNS) [µM] | TGI (SK-MEL-5 melanoma) [µM] | TGI (U251 CNS) [µM] | TGI (SK-MEL-2 melanoma) [µM] | TGI (SK-OV-3 ovarian) [µM] | TGI (UO-31 renal) [µM] | TGI (ACHN renal) [µM] | TGI (COLO 205 colon) [µM] | TGI (NCI-H226 lung) [µM] | TGI (A498 renal) [µM] |
| --- | --- | --- | --- | --- | --- | --- | --- | --- | --- | --- | --- | --- | --- | --- | --- | --- | --- | --- |
| CC1=CC=C2c3ccccc3C=CN2C(=O)C1 | 84.9 | > 100 | > 100 | > 100 | > 100 | > 100 | > 100 | > 100 | > 100 | 46.1 | > 100 | > 100 | > 100 | > 100 | > 100 | > 100 | > 100 |  |
| O=C(Cc1ccccc1)N[C@@H]1COC(=O)[C@@H]2CCCN2C(=O)[C@@H]2CCCN2C1=O (PhAc-[dS]-Pro-Pro; ester 1-C) | > 100 | > 100 | > 100 | > 100 | > 100 | > 100 | > 100 | > 100 | > 100 | > 100 |  | > 100 | > 100 |  | > 100 | > 100 |  | > 100 |
| CCCCCN1CCN(c2ncccn2)CC1 | > 100 | > 100 | > 100 | > 100 | > 100 | > 100 | > 100 | > 100 | > 100 | > 100 | > 100 | > 100 |  | > 100 | > 100 | > 100 |  | > 100 |
| CCN1C(=S)n2cccc2C1CC(=O)c1ccc(Cl)cc1 (configuration not stated) | > 100 | > 100 | > 100 | > 100 | > 100 | > 100 | > 100 | > 100 |  |  | > 100 | > 100 | > 100 | > 100 | > 100 |  |  | > 100 |
| N=c1oc2c(Br)cc(Br)cc2cc1C(=O)Nc1ccccn1 |  | > 100 | > 100 | > 100 | > 100 | > 100 | > 100 | > 100 | > 100 | > 100 | > 100 | 91.8 | > 100 |  | > 100 | > 100 | > 100 | > 100 |
| Cc1n[n+](CC(=O)c2ccccc2)c2sc(N)nn12 | > 100 | > 100 | > 100 | > 100 | > 100 | > 100 | > 100 | > 100 |  | > 100 | > 100 | > 100 | > 100 | > 100 | > 100 | > 100 | > 100 | > 100 |
| CC1(C)C(C#N)=[N+]([O-])C(C)(C)N1O | > 100 | > 100 | > 100 | > 100 | > 100 | > 100 | > 100 | > 100 | > 100 | > 100 | > 100 | > 100 | > 100 | > 100 | > 100 | > 100 | > 100 |  |
